Experimental data taken from article PMC2845622, “An Expanded Self-Antigen Peptidome Is Carried by the Human Lymph As Compared to the Plasma” (PLoS ONE, 2010).
Like-named read-outs stand apart in the source and are kept apart here. Ends that are not written are not given here.

Columns and labels:
[1] = tested on: lymph node T cells of HLA-DR1 or HLA-DR4 transgenic mice; experiment: T cell proliferation (thymidine incorporation) in lymph nodes from peptide immunized mice; assay type: cell-based, mouse; conditions: mice immunized with 100 µg peptide in complete Freund's adjuvant, lymph nodes 14 days later, 72 h culture with titrated peptide
Procedure: Finally we asked whether any of the tight-binding peptides, which also were conserved between mouse and human, could be recognized by peripheral T cells. HLA-DR1 or HLA-DR4 transgenic mice were immunized with 100 µg of several of the extracellular matrix peptides in complete Freund's adjuvant in the flanks and nape of the neck. Draining lymph nodes were collected 14 days later and reactive T cells analyzed by proliferation assay with thymidine incorporation.
HLA-DR1 and HLA-DR4 mice were immunized in the flanks and nape of the neck with 100 micrograms of peptide emulsion in Freund's adjuvant. Two weeks later popliteal and axillary lymph nodes were harvested and tested in proliferation assay. Briefly 6×10^5 cells were seeded in a 96 well plate with or without titrated amount of the immunizing peptide for 72 hours. Thymidine ([…]) was added 18 hours before cell harvesting. Cells were harvested on a Tomtec harvester (Model 94-3-468) and incorporated thymidine counted on a liquid scintillation counter (1450 Microbeta Wallac Trilux).

[2] = biological target: HLA-DR4 (HLA-DRA*0101,-DRB1*0401) (Homo sapiens, UniProt P01903+P01911, A100K/A169T/F76Y/I96L/K127E/L162R/M171V/N62H/P40V/Q125Y/R42H/S133A/S149N/S66Y/V115G/V209L/W38E); experiment: Competition fluorescence polarization peptide binding assay, HLA-DR4 with HLA-DM
[3] = biological target: HLA-DR1 (HLA-DRA*0101,-DRB1*0101) (Homo sapiens, UniProt P01903+P01911, A100R/D57E/F55L/F60I/F76Y/I96L/L162R/M171V/P40L/Q125E/R42F/V115G/Y59C); experiment: Competition fluorescence polarization peptide binding assay, HLA-DR1; conditions: competition with Alexa488-HA peptide 25 nM, HLA-DR1 100 nM, 3 days at 37°C, citrate pH 5/5.5; mean of single fit to triplicate values
[4] = competition with Alexa488-HA peptide 25 nM, HLA-DR4 and HLA-DM 100 nM each, 1 mM DTT, 3 days at 37°C, citrate pH 5/5.5, mean of single fit to triplicate values, read-out: DR4 IC50

IC50 [2, 4]	IC50 [3]	Substance	Proliferative response of draining lymph node T cells to immunizing peptide [1]	IC50 [2]
> 100 µM		Ac-NGVVGPTGPVGAAGP-NH2 [ngvVGPTGPVGAagp]		
> 100 µM	18 µM	Ac-NGVVGPTGPVGAAGPA-NH2 [ngVVGPTGPVGaagpa]		
> 100 µM	0.8 µM	Ac-PQGFQGNPGEPGE [pqgFQGNPGEPGe]		
60.1 µM		Ac-SPWIDASTAIDA [spWIDASTAIDa]		
56.4 µM	54.6 µM	NYAILRNLQP [nYAILRNLQP]		

Continued, substance first:

Substance	IC50 [2, 4]	IC50 [3]	Proliferative response of draining lymph node T cells to immunizing peptide [1]	IC50 [2]
Ac-DPFRLQSTSQHN [dpFRLQsTsQHn]	1.3 µM		significant proliferation index	
Ac-EDTFAHLTPTPT [edtFAHLTPTPT]		1.7 µM		
Ac-GALLGAPPPLVPAP [gaLLGAPPPLVpap]	8.8 µM	10.8 µM		
Ac-HQVSINNTAVMQRL [hqVSINNTAVMqrl]	4.7 µM	41.6 µM		
Ac-KNFASVQGVSLESG [knFASVQGVSLesg]		0.42 µM		
Ac-PGALLGAPPPLVPAP [pgaLLGAPPPLVpap]				> 100 µM
MGPMGPRGPPGPA-NH2 [MGPMGPRGPpgpa]	> 100 µM			
MLQGTSSVLLLWG-NH2 [mLQGTsSVLLlwg]	79.6 µM	62.4 µM		
